Three compounds from patent publication US20100173959A1, “METHOD OF PROTECTING A PLANT PROPAGATION MATERIAL, A PLANT, AND/OR PLANT ORGANS” (SYNGENTA CROP PROTECTION, INC., priority 2007, published 2010) can be followed below.

Each structure is given as a SMILES string.

For data set [1], the system named is Myzus persicae. Kind of data set: B2: Myzus persicae (Green Peach Aphid), mixed population, systemic/feeding activity, curative. It counts as in vivo. The following applies: 144 h, roots of infested pea seedlings in test solution of 6 ppm, 6 days after introduction, read-out: control of Myzus persicae (mortality). An excerpt: B2: Myzus persicae (Green Peach Aphid) (Mixed Population, Systemic/Feeding Activity, Curative)
Roots of pea seedlings, infested with an aphid population of mixed ages, are placed directly in the test solutions of 6 ppm. 6 days after introduction, samples are checked for mortality and special effects on the plant.

Data set [2] has as its system African bean aphid (Aphis craccivora). Kind of data set: Example 1: sugarbeet seed treatment, reduction of African bean aphid. It counts as in vivo. The following applies: infested 14 days after sowing, counted 7 days after infestation. The procedure:
(§1) Sugarbeet seeds are treated with P1.1, P1.5, P1.6, P1.8, P1.32 or P1.38 at rates of 0.1, 0.3 and 0.6 mg a.i./seed. The seeds are sown into 9-cm pots filled with 280 mL of soil. After placing the seeds on the soil surface they are covered with 50 mL of soil. Before and during the bioassays, the plants are grown in greenhouse chambers at 25° C. during daytime, 23° C. during night, 50-60% rH, a 14-hour photoperiod and artificial lighting when natural light fell below 20 kLux. After sowing, the pots are transferred to the greenhouse chambers, set up in a random fashion and are irrigated as necessary from above. After 14 days, the plants are infested with African bean aphid (Aphis craccivora) by placing one infested pea seedling containing approximately 150 aphids of a population of mixed developmental stages onto each plant. Seven days after infestation, the number of aphids is counted per plant. Each treatment group is replicated 10 times. Each replicate contains 1 plant.

Data set [3] relates to Myzus persicae. Kind of data set: B1: Myzus persicae (Green Peach Aphid), mixed population, sachet test. It counts as in vivo. As to conditions: 144 h, 12.5 ppm in 30% sucrose solution, 6 days after infestation, read-out: control of Myzus persicae (mortality, feeding activity). The procedure: B1: Myzus persicae (Green Peach Aphid) (Mixed Population, Sachet Test)
Each well of a 24-well microtiter plate is filled with 0.6 ml 30% sucrose solution, containing 12.5 ppm of the test compounds. For producing the sachets, the wells are covered with stretched parafilm and infested with a mixed population of Myzus persicae. 6 days after the infestation, samples are checked for mortality (feeding activity).

The test system of data set [4] is cabbage aphid (Myzus persicae). Description: Example 2: Chinese cabbage seed treatment, reduction of cabbage aphid. It counts as in vivo. The following applies: infested 14 days after sowing, counted 7 days after infestation. How it is done: as §1, with “Chinese cabbage” for “Sugarbeet”, “of” for “of 0.1,”, “cabbage” for “African bean”, “(Myzus persicae)” for “(Aphis craccivora)”

Broadly, the mortality is the share of the test organisms that died. As for `COc1cccc2c1C(N)=NS2(=O)=O` [P1.1, 3-Amino-4-methoxybenzo[d]isothiazole-1,1-dioxide], the mortality at 6 ppm in data set [1] was 100%. In addition, the “Efficacy, % (reduction of aphids compared to untreated control plants)” value worked out at 41% in data set [2] (0.1 mg/seed); 69% in data set [2] (0.3 mg/seed); 92% in data set [2] (0.6 mg/seed); 10% in data set [4] (0.3 mg/seed); 45% in data set [4] (0.6 mg/seed). In addition, in data set [3], the mortality at 12.5 ppm was found to be 100%.

With `NC1=NS(=O)(=O)c2cccc(Cl)c21` [P1.5, 3-Amino-4-chlorobenzo[d]isothiazole-1,1-dioxide], the mortality at 6 ppm in data set [1] turned out to be 100%. The “Efficacy, % (reduction of aphids compared to untreated control plants)” value is recorded as 87% in data set [2] (0.1 mg/seed), 11% in data set [4] (0.3 mg/seed) and 64% in data set [4] (0.6 mg/seed). Also, the mortality at 12.5 ppm in data set [3] amounted to 100%.

In general, melting point refers to the temperature, or range, at which the solid turns liquid. On to `COc1cccc2c1C(NC(C)=O)=NS2(=O)=O` [P1.8, 3-Acetylamino-4-methoxybenzo[d]isothiazole-1,1-dioxide], for which the melting point is 242 to 245 °C. The “Efficacy, % (reduction of aphids compared to untreated control plants)” value in data set [2] (0.1 mg/seed) came to 8%. The “Efficacy, % (reduction of aphids compared to untreated control plants)” value in data set [2] (0.3 mg/seed) was determined as 72%. The “Efficacy, % (reduction of aphids compared to untreated control plants)” value in data set [2] (0.6 mg/seed) worked out at 95%. Besides, in data set [4] (0.3 mg/seed), the “Efficacy, % (reduction of aphids compared to untreated control plants)” value is reported as 0%. Further, in data set [4] (0.6 mg/seed), the “Efficacy, % (reduction of aphids compared to untreated control plants)” value stood at 28%.
